Results from US11524963B2, “Substituted pyrazolo[3,4-d]pyrimidines as RET kinase inhibitors” (Array Biopharma Inc., priority 2018, dated 2022).
Positions count from the first letter of the chain named.

Legend:
[1] = biological target: RET kinase V804M (Homo sapiens, UniProt P07949, V804M); test: RET Enzyme Assay (HTRF KinEASE-TK), V804M; format: biochemical
[2] = biological target: RET kinase Wild Type (Homo sapiens, UniProt P07949); test: RET Enzyme Assay (HTRF KinEASE-TK), Wild Type; format: biochemical
[3] = biological target: RET kinase G810R (Homo sapiens, UniProt P07949, G810R); test: RET Enzyme Assay (HTRF KinEASE-TK), G810R; format: biochemical
[4] = biological target: RET kinase G810S (Homo sapiens, UniProt P07949, G810S); test: RET Enzyme Assay (HTRF KinEASE-TK), G810S; format: biochemical
[5] = biological target: T1, HEK-293 cells expressing a Kif5b-RET fusion protein (Homo sapiens, UniProt P07949); test: RET Cell Assay (phospho-RET Tyr1062); format: cell-based; details: 1 hour with compound, phospho-RET(Tyr1062) normalized to GAPDH, read-out: KIF5B-RET pTYR1062 Cell IC50
T1 construct: expressed in transfected cells; host or cells: HEK-293; the other entry of the earlier key: KIF5B (P33176, Kinesin-1 heavy chain)
T1 sequence (P07949 713-1063 limits assumed): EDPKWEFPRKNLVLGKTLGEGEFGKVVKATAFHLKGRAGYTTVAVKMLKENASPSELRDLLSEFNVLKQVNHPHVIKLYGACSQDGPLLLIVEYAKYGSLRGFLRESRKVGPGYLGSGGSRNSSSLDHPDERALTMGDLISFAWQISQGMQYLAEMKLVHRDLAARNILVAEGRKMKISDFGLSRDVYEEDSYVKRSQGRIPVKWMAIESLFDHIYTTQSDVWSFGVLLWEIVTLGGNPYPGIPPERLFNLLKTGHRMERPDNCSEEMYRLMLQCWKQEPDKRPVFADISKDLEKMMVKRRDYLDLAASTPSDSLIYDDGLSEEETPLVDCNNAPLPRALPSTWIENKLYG
Experimental: (§1) The cellular potency of compounds inhibiting RET kinase were determined in HEK-293 cells expressing a Kif5b-RET fusion protein. Briefly, HEK-293 cells expressing a Kif5b-RET fusion protein were plated at 50K cells/well in 96 well poly-D-Lysine coated plates the day prior to the assay. The cells were incubated for 1 hour with test compound in DMEM (Dulbecco's Modified Eagle Medium) at a final DMSO concentration of 0.5%. […] After 1 hour the media was removed, the cells were fixed with 3.8% formaldehyde for 20 min, washed with PBS, and permeabilized for 10 min with 100% methanol. […] All antibodies were diluted in LI-COR Block containing 0.05% Tween. The plates were washed with PBS-0.05% Tween20, 100 μL PBS is added to each well, and the plates were read on a LI-COR Aerius fluorescent plate reader. The phospho-RET signal was normalized to the GAPDH signal. 100 POC (percent of control) was determined using no test compounds and 0 POC was determined using 1 μM of a control inhibitor. The POC values were fit to a 4 parameter logistic curve. The IC50 value is the point where the curve crosses 50 POC.

[6] = biological target: RET kinase M918T (Homo sapiens, UniProt P07949, M918T); test: RET Enzyme Assay (HTRF KinEASE-TK), M918T; format: biochemical
[7] = biological target: T2, HEK-293 cells expressing a G810R mutant RET Kif5b-RET fusion protein (Homo sapiens, UniProt P07949, G810R); test: RET G810R Mutant Cell Assay (phospho-RET Tyr1062); format: cell-based; details: 1 hour with compound, phospho-RET(Tyr1062) normalized to GAPDH
T2 construct: expressed in transfected cells; host or cells: HEK-293; the other entry of the earlier key: KIF5B (P33176, Kinesin-1 heavy chain)
T2 sequence (P07949 713-1063 G810R limits assumed): T1 sequence (P07949 713-1063 limits assumed) with G98R
Experimental: RET G810R and G810S Mutant Cell Assay
as §1, with “expressing a G810R or G810S mutant RET Kif5b-RET fusion” for “expressing a Kif5b-RET fusion”, “μL PBS was added to” for “μL PBS is added to”, “POC values are fit to” for “POC values were fit to”

Sequence of RET kinase G810R (P07949 29-1114 G810R): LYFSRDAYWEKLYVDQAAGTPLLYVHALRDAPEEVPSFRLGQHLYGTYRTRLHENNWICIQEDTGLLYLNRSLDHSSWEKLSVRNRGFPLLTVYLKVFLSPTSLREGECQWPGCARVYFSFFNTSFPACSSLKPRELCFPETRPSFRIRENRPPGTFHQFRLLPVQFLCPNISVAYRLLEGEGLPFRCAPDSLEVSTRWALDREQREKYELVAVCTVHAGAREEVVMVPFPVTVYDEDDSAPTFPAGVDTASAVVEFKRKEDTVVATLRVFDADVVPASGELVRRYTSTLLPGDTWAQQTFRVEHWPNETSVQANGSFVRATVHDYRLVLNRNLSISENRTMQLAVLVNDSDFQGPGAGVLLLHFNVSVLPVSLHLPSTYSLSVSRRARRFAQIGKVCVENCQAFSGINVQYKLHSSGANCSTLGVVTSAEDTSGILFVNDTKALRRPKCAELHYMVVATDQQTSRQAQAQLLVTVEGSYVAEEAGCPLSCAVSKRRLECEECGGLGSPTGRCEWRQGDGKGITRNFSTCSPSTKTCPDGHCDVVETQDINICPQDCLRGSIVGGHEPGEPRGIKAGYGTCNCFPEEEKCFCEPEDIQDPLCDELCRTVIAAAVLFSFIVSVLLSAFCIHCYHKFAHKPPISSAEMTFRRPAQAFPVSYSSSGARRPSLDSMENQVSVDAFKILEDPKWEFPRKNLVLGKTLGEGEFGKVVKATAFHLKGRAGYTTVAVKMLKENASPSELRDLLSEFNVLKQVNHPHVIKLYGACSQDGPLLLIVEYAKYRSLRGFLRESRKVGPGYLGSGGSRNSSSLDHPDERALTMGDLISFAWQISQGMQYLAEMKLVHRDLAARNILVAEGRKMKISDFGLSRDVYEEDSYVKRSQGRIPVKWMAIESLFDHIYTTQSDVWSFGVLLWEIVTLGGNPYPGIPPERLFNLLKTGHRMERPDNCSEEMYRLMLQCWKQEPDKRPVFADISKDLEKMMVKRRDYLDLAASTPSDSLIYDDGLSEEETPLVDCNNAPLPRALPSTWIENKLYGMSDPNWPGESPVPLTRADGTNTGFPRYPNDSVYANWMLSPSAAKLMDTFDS
Sequence of RET kinase M918T (P07949 29-1114 M918T): as the sequence (P07949 29-1114 G810R) above, with R782G, M890T counted along it
Sequence of RET kinase G810S (P07949 29-1114 G810S): as the sequence (P07949 29-1114 G810R) above, with R782S counted along it
Sequence of RET kinase V804M (P07949 29-1114 V804M): as the sequence (P07949 29-1114 G810R) above, with V776M, R782G counted along it
Sequence of RET kinase Wild Type (P07949 29-1114): as the sequence (P07949 29-1114 G810R) above, with R782G counted along it

Structure (SMILES)	IC50 [1] [nM]	IC50 [2] [nM]	IC50 [3] [nM]	IC50 [4] [nM]	IC50 [5] [nM]	IC50 [6] [nM]	IC50 [7] [nM]
CC(C)n1nc(-c2noc(C3CC3)c2C2=CCC(O)CC2)c2c(N)ncnc21 (stereo not shown) [Example 14, 4-(3-(4-amino-1-isopropyl-1H-pyrazolo[3,4-d]pyrimidin-3-yl)-5-cyclopropylisoxazol-4-yl)cyclohex-3-en-1-ol]	7	1.2	4.1	4.9	35	1.5	86
CC(C)n1nc(-c2noc(C3CC3)c2-c2ncccn2)c2c(N)ncnc21 [Example 11, 3-(5-cyclopropyl-4-(pyrimidin-2-yl)isoxazol-3-yl)-1-isopropyl-1H-pyrazolo[3,4-d]pyrimidin-4-amine]	4.4	1.5	3.5	4.9	86	1.2	
CC(C)n1nc(-c2noc(C3CC3)c2-c2ccn(C)n2)c2c(N)ncnc21 [Example 2, 3-(5-cyclopropyl-4-(1-methyl-1H-pyrazol-3-yl)isoxazol-3-yl)-1-isopropyl-1H-pyrazolo[3,4-d]pyrimidin-4-amine]	2.1	1.2	4.4	4.4	75	1.1	247
CC(C)n1nc(-c2noc(C3CC3)c2C2=COCCC2)c2c(N)ncnc21 [Example 10, 3-(5-cyclopropyl-4-(3,4-dihydro-2H-pyran-5-yl)isoxazol-3-yl)-1-isopropyl-1H-pyrazolo[3,4-d]pyrimidin-4-amine]	13.8	1.5	4.1	13.6	199	2.2	
CC(C)n1nc(-c2noc(C3CC3)c2C2=CCC(=O)CC2)c2c(N)ncnc21 [Example 5, 4-(3-(4-amino-1-isopropyl-1H-pyrazolo[3,4-d]pyrimidin-3-yl)-5-cyclopropylisoxazol-4-yl)cyclohex-3-en-1-one]	20.5	2.7	7.1	11.7	105	3.2	
CC(C)n1nc(-c2noc(C3CC3)c2C2=CCCCO2)c2c(N)ncnc21 [Example 9, 3-(5-cyclopropyl-4-(3,4-dihydro-2H-pyran-6-yl)isoxazol-3-yl)-1-isopropyl-1H-pyrazolo[3,4-d]pyrimidin-4-amine]	0.6	0.3	1.4	1.4	24	0.2	137
CC(C)n1nc(-c2noc(C3CC3)c2Br)c2c(N)ncnc21 [Example 1, 3-(4-bromo-5-cyclopropylisoxazol-3-yl)-1-isopropyl-1H-pyrazolo[3,4-d]pyrimidin-4-amine]	5.7	2.1	3.8	11.7	263	1.8	
CC(C)n1nc(-c2noc(C3CC3)c2-c2ccccc2)c2c(N)ncnc21 [Example 6, 3-(5-cyclopropyl-4-phenylisoxazol-3-yl)-1-isopropyl-1H-pyrazolo[3,4-d]pyrimidin-4-amine]	23.9	4.7	10	26.2	488	4.5	

Now from value to molecule:

IC50 [1] [nM]	IC50 [2] [nM]	IC50 [3] [nM]	IC50 [4] [nM]	IC50 [5] [nM]	IC50 [6] [nM]	IC50 [7] [nM]	Structure (SMILES)
307	2.3	16.5	13	21	3	214	C=Cc1cc(-c2nn(C(C)C)c3ncnc(N)c23)n(C2CCCCO2)n1 (stereo not shown) [Example 22, 1-isopropyl-3-(1-(tetrahydro-2H-pyran-2-yl)-3-vinyl-1H-pyrazol-5-yl)-1H-pyrazolo[3,4-d]pyrimidin-4-amine]
27.4	4.1	15.8	46	344	8.5	10000	CC(C)n1nc(-c2ccnn2C2CCCCO2)c2c(N)ncnc21 (stereo not shown) [Example 23, 1-isopropyl-3-(1-(tetrahydro-2H-pyran-2-yl)-1H-pyrazol-5-yl)-1H-pyrazolo[3,4-d]pyrimidin-4-amine]
3.1	1.1	4.4	4.3	42	1		CC(C)n1nc(-c2noc([C@@H](C)O)c2-c2ccccn2)c2c(N)ncnc21 [Example 18, (R)-1-(3-(4-amino-1-isopropyl-1H-pyrazolo[3,4-d]pyrimidin-3-yl)-4-(pyridin-2-yl)isoxazol-5-yl)ethan-1-ol]
418	3.9	28.9	24.1	40	6.1	628	CC(C)n1nc(-c2cc(C3CC3)nn2C2CCCCO2)c2c(N)ncnc21 (stereo not shown) [Example 19, 3-(3-cyclopropyl-1-(tetrahydro-2H-pyran-2-yl)-1H-pyrazol-5-yl)-1-isopropyl-1H-pyrazolo[3,4-d]pyrimidin-4-amine]
6.5	1.3	6.3	6.3	42	1.6	263	CC(C)n1nc(-c2noc(C3CC3)c2C2=CCC(C)(O)CC2)c2c(N)ncnc21 (stereo not shown) [Example 15, 4-(3-(4-amino-1-isopropyl-1H-pyrazolo[3,4-d]pyrimidin-3-yl)-5-cyclopropylisoxazol-4-yl)-1-methylcyclohex-3-en-1-ol]
1.3	0.6	3.6	4	28	0.7	162	CC(C)n1nc(-c2noc(C3CC3)c2C2CCCCO2)c2c(N)ncnc21 (stereo not shown) [Example 16, 3-(5-cyclopropyl-4-(tetrahydro-2H-pyran-2-yl)isoxazol-3-yl)-1-isopropyl-1H-pyrazolo[3,4-d]pyrimidin-4-amine]
260	2.1	19.5	17.9	36	4.1	342	Cc1cc(-c2nn(C(C)C)c3ncnc(N)c23)n(C2CCCCO2)n1 (stereo not shown) [Example 21, 1-isopropyl-3-(3-methyl-1-(tetrahydro-2H-pyran-2-yl)-1H-pyrazol-5-yl)-1H-pyrazolo[3,4-d]pyrimidin-4-amine]
7.5	0.7	2.2	3.7	68	0.8	264	CC(C)n1nc(-c2noc(C3CC3)c2C2CCOCC2)c2c(N)ncnc21 [Example 17, 3-(5-cyclopropyl-4-(tetrahydro-2H-pyran-4-yl)isoxazol-3-yl)-1-isopropyl-1H-pyrazolo[3,4-d]pyrimidin-4-amine]
